Experimental data taken from patent US20250041313A1, “COMBINATION THERAPY FOR TREATMENT OF CANCER” (CITY OF HOPE, priority 2023, published 2025).
Read-outs that look alike come from different tables or passages of the source.

What was measured:
SBC3 cells = assay: CCK-8 cell viability/cytotoxicity assay, 72 h; format: cell-based, human; details: Homo sapiens, SBC-3
Description: (§1) The expression levels of DRP1 and DHODH in SCLC lines were compared with non-malignant BEAS 2B cells. […] Previous studies have shown that Leflu and its active metabolite Teri regulate mitochondrial morphology (9,10,26). […] In vitro cytotoxicity effect of Teri and Leflu was tested in a panel of SCLC cell lines. Ten SCLC cell lines were treated with increasing concentrations of each drug for 72 h.
(§2) Isobologram and CI50 values were calculated using the Chou-Talalay method and IC50 to find synergism (FIG. 3B).

SBC5 cells = assay: CCK-8 cell viability/cytotoxicity assay, 72 h; format: cell-based, human
Description: as §1, §2

H446 spheroids = assay: Imaris mitochondrial morphology in spheroids; format: cell-based, human; details: Teri 1600 nM, Teri/Lur 800, 1600 nM/pM
Description: Spheroids were transferred to low cell attachment dishes, grown for two days, and treated with drug. After treatment, spheroid samples were run with Western blot assay. For spheroid mitochondria visualization, they were stained with 250 nM MitoTracker® Red CMXRos and Hoechst from ThermoFisher Scientific (Waltham, MA) for 2 h after drug treatment. Spheroids were washed, fixated with 4% PFA, transferred into 96-well flat glass-bottom black microplate (Cellvis, Mountain View, CA), and mounted in wells. […] Z-stacks were acquired in Airyscan Fast mode with a 2.0 μm interval and optical zoom of 2.0. […] In Airyscan Fast mode excitation was provided by 405 nm (1.0%) and 561 nm (1.0%) lasers with gain and detection wavelengths: DAPI […] (450 nm) and Red […] (579 nm). 2D images were acquired with a 20×/0.8 NA Plan-Apochromat objective and captured with PMT detectors. […] Roundness ratios were calculated from Surface generated Bounding Box 00 Length measurements. Object lengths less than 0.1 μm were excluded, and lengths greater than 1.26 μm were separately analyzed as clusters. […] The Cells module was used to detect and quantify mitochondria and nucleus area from cell monolayers. […] Imaris includes nuclei in cytoplasm measurements, so mitochondrial area is calculated by subtracting nucleus area from cell cytoplasm area. […]

panel of SCLC cell lines = assay: CCK-8 cytotoxicity in a panel of SCLC cell lines (statements on the panel); format: cell-based, human; details: 72 h
Description: as §1
Among the drugs approved for SCLC, lurbinectedin is used to treat patients with metastatic SCLC with disease progression. Lurbinectedin (Lur) is an inhibitor of RNA polymerase II, which is commonly hyperactivated in SCLC, resulting in excessive transcription in tumor cells (44). In this study, we tested the combination of Lur with Teri to see if it may reduce the viability of SCLC cells.

SBC3 xenograft = assay: SBC3 mouse xenograft, Lur/Leflu study; format: in vivo; details: for tumor weight at end of study: Lur 0.5 mg/kg, Leflu 3.8 mg/kg, i.p. twice a week; for reduction in tumor size/weight: vs control
Description: Athymic nude nu/nu mice were obtained from Charles River, Wilmington, MA, and were acclimated for a week before beginning the experiment. All animal experiments were carried out in accordance with a protocol approved by the Institutional Animal Care and Use Committee COH (IACUC #16004). For treatments, mice were divided into 4 groups with five mice per group and subcutaneously injected into one flank with 2×10^6 SBC3 or SBC5 cells suspensions in 100 μl of PBS. Treatment started on the 14th day when tumors became palpable. Two in vivo studies were done in this project. SBC3 and SBC 5 xenograft with i) vehicle control, ii) […] 50 mg/kg, iii) Leflu 7.5 mg/kg, and iv) […]/Leflu. SBC3 with i) vehicle control, ii) Lur 0.5 mg/kg, iii) Leflu 3.8 mg/kg, and iv) Lur/Leflu. Treatments were given to mice via i.p. twice a week for 6 weeks. Animals were examined daily for signs of tumor growth. Tumors were measured in two dimensions using calipers and body weights were recorded. Animals were photographed on days 1, 5, 10, 15, 20, 25, 30, 35, and 40 after treatment. Tumors were removed on day 40 and photographed. At the end of the study, the mice were euthanized by CO2 asphyxiation followed by cervical dislocation. The tumor weights were compared between groups using an unpaired Student's t-test. A portion of the tumor was fixed in 10% buffered formaldehyde solution and paraffin-embedded for immuno-staining. FFPE tumor sections were stained with pDRP Ser^616 antibody. Tumor sections were deparaffinized and rehydrated, followed by heat-mediated antigen retrieval (pH 6, Dako). After permeabilization and blocking, tumor sections were stained with pDRP1 Ser^616 antibody overnight, washed and incubated with Alexa 488 secondary antibody for one hour, mounted and observed on an LSM 880 with a 10×/0.45 NA objective (Carl Zeiss). Immunofluorescent confocal images were acquired for each treatment (magnification:100×). Mean immunofluorescence intensities were calculated with ZEN 2.3 Lite software.

[1] = SBC3 cells, 72 h, read-out: IC50

Row | SMILES | IC50 (SBC3 cells; SBC3, CCK-8 72 h, fixed concentrations of Teri and Carbo, read-out: IC50, single treatment and combination treatment) [µM] | IC50 (SBC3 cells; [1]) [µM] | IC50 (SBC5 cells) [µM] | IC50 (SBC5 cells; Homo sapiens, SBC-5, 72 h) [µM] | Percentages of round/fragmentated mitochondria (H446 spheroids) | IC50 (panel of SCLC cell lines; Homo sapiens, five of ten SCLC cell lines, read-out: IC50 in the five sensitive cell lines) [µM] | IC50 doses compared with Teri (panel of SCLC cell lines; ten SCLC cell lines) | tumor weight at end of study (SBC3 xenograft) [g] | reduction in tumor size/weight (SBC3 xenograft) [%] | cell cytotoxicity at low doses (panel of SCLC cell lines; H69, H82, H446, SBC3, and SBC5 cells)
1 | C/C(O)=C(\C#N)C(=O)Nc1ccc(C(F)(F)F)cc1 [Teriflunomide, teriflunomide] | 4.24 | 2 | 33 | 30 | significantly decreased | < 11 | – | – | – | –
2 | Cc1oncc1C(=O)Nc1ccc(C(F)(F)F)cc1 [Leflunomide, leflunomide] | – | 8.9 | – | 108 | – | – | much higher | 1.39 ± 0.12 | ~22 | –
3 | COc1ccc2[nH]c3c(c2c1)CCN[C@]31CS[C@@H]2c3c(OC(C)=O)c(C)c4c(c3[C@H](COC1=O)N1[C@@H]2[C@H]2c3c(cc(C)c(OC)c3O)C[C@@H]([C@@H]1O)N2C)OCO4 [Lurbinectedin, lurbinectedin] | – | – | – | – | significantly decreased | – | – | 1.09 ± 0.11 | ~39 | drastically increased cell cytotoxicity
